# ChEMBL document CHEMBL4411307, “N,N'-diaryl-bishydrazones in a biphenyl platform: Broad spectrum antifungal agents” (Eur J Med Chem, 2019)
# The source made the active and inactive calls. No cut-off for these calls is given here.
# Columns and labels:
# [1] = Selectivity index, ratio of CC50 for human A549 cells to MIC for fluconazole/ITC-resistant Candida albicans ATCC MYA-1003; assay type: toxicity; details: read-out: Selectivity Index
# [2] = Selectivity index, ratio of CC50 for human A549 cells to MIC for fluconazole/ITC-resistant Candida albicans ATCC MYA-1237; assay type: toxicity; details: read-out: Selectivity Index
# A549 = assay: Cytotoxicity against human A549 cells after 24 hrs by resazurin based assay; assay type: cell-based; details: a549, 24 h
# [3] = Selectivity index, ratio of compound concentration showing <20 to <30% hemolysis in mouse RBC to MIC for Aspergillus terreus ATCC MYA-3633; assay type: toxicity; details: mouse red blood cells (RBC), read-out: Selectivity Index
# [4] = Selectivity index, ratio of compound concentration showing <20 to <30% hemolysis in mouse RBC to MIC for fluconazole/ITC-susceptible Candida albicans ATCC MYA-2876; assay type: toxicity; details: red blood cells (erythrocytes), read-out: Selectivity Index
# [5] = Selectivity index, ratio of compound concentration showing <20 to <30% hemolysis in mouse RBC to MIC for Candida parapsilosis ATCC 22019; assay type: toxicity; details: mouse red blood cells (RBC), read-out: Selectivity Index
# [6] = Selectivity index, ratio of compound concentration showing <20 to <30% hemolysis in mouse RBC to MIC for fluconazole/ITC-resistant Candida albicans ATCC MYA-1237; assay type: toxicity; details: mouse red blood cells (RBC), read-out: Selectivity Index
# Listeria monocytogenes = assay: Antibacterial activity against Listeria monocytogenes; assay type: functional, organism-based
# [7] = Selectivity index, ratio of compound concentration showing <20 to <30% hemolysis in mouse RBC to MIC for Aspergillus nidulans ATCC 38163; assay type: toxicity; details: mouse red blood cells (RBC), read-out: Selectivity Index
# [8] = Hemolytic activity in mouse RBC at 3.9 ug/ml after 1 hr relative to control; assay type: ADME, cell-based, Erythrocyte; details: red blood cells (erythrocytes), read-out: Activity
# [9] = Selectivity index, ratio of CC50 for human A549 cells to MIC for fluconazole/ITC-susceptible Candida albicans ATCC MYA-2310; assay type: toxicity; details: read-out: Selectivity Index
# Candida albicans [10] = assay: Antifungal activity against fluconazole/ITC-resistant Candida albicans ATCC 10231 measured after 48 hrs by CLSI M27-A3 protocol based method; assay type: functional; details: ATCC 10231, 48 h
# [11] = Selectivity index, ratio of CC50 for human A549 cells to MIC for Candida glabrata ATCC 2001; assay type: toxicity; details: read-out: Selectivity Index
# [12] = Hemolytic activity in mouse RBC at 7.8 ug/ml after 1 hr relative to control; assay type: ADME, cell-based, Erythrocyte; details: red blood cells (erythrocytes), read-out: Activity
# Pichia kudriavzevii = assay: Antifungal activity against Candida krusei ATCC 6258 measured after 48 hrs by CLSI M27-A3 protocol based method; assay type: functional; details: ATCC 6258, 48 h
# [13] = Hemolytic activity in mouse RBC at 31.3 ug/ml after 1 hr relative to control; assay type: ADME, cell-based, Erythrocyte; details: red blood cells (erythrocytes), read-out: Activity
# Candida albicans [14] = assay: Antifungal activity against fluconazole/ITC-susceptible Candida albicans ATCC MYA-2876 measured after 48 hrs by CLSI M27-A3 protocol based method; assay type: functional; details: ATCC MYA-2876, 48 h
# Enterococcus = assay: Antibacterial activity against vancomycin-resistant Enterococcus; assay type: functional, organism-based
# [15] = Selectivity index, ratio of CC50 for human A549 cells to MIC for Aspergillus terreus ATCC MYA-3633; assay type: toxicity; details: read-out: Selectivity Index
# [16] = target: Voltage-gated inwardly rectifying potassium channel KCNH2 (Homo sapiens, UniProt Q12809); assay: Inhibition of [3H]-dofetilide binding to human ERG expressed in HEK293 cell membranes measured after 1 hr by liquid scintillation counting method
# Candida albicans [17] = assay: Antifungal activity against fluconazole/ITC-resistant Candida albicans ATCC 64124 measured after 48 hrs by CLSI M27-A3 protocol based method; assay type: functional; details: ATCC 64124, 48 h
# [18] = Selectivity index, ratio of CC50 for human A549 cells to MIC for fluconazole/ITC-resistant Candida albicans ATCC 10231; assay type: toxicity; details: read-out: Selectivity Index
# [19] = Selectivity index, ratio of compound concentration showing <20 to <30% hemolysis in mouse RBC to MIC for fluconazole/ITC-resistant Candida albicans ATCC 64124; assay type: toxicity; details: red blood cells (erythrocytes), read-out: Selectivity Index
# [20] = Selectivity index, ratio of compound concentration showing <20 to <30% hemolysis in mouse RBC to MIC for fluconazole/ITC-resistant Candida albicans ATCC 90819; assay type: toxicity; details: red blood cells (erythrocytes), read-out: Selectivity Index
# Candida parapsilosis = assay: Antifungal activity against Candida parapsilosis ATCC 22019 measured after 48 hrs by CLSI M27-A3 protocol based method; assay type: functional; details: Lodderomyces parapsilosis, ATCC 22019, 48 h
# [21] = Selectivity index, ratio of CC50 for human A549 cells to MIC for fluconazole/ITC-susceptible Candida albicans ATCC MYA-2876; assay type: toxicity; details: read-out: Selectivity Index
# [22] = Selectivity index, ratio of compound concentration showing <20 to <30% hemolysis in mouse RBC to MIC for Candida glabrata ATCC 2001; assay type: toxicity; details: mouse red blood cells (RBC), read-out: Selectivity Index
# [23] = Selectivity index, ratio of CC50 for human A549 cells to MIC for fluconazole/ITC-resistant Candida albicans ATCC 90819; assay type: toxicity; details: read-out: Selectivity Index
# [24] = Selectivity index, ratio of CC50 for human A549 cells to MIC for Candida krusei ATCC 6258; assay type: toxicity; details: read-out: Selectivity Index
# Candida albicans [25] = assay: Antifungal activity against fluconazole/ITC-resistant Candida albicans ATCC 90819 measured after 48 hrs by CLSI M27-A3 protocol based method; assay type: functional; details: ATCC 90819, 48 h
# [26] = Selectivity index, ratio of compound concentration showing <20 to <30% hemolysis in mouse RBC to MIC for fluconazole/ITC-susceptible Candida albicans ATCC MYA-2310; assay type: toxicity; details: mouse red blood cells (RBC), read-out: Selectivity Index
# Staphylococcus aureus = assay: Antibacterial activity against methicillin-resistant Staphylococcus aureus; assay type: functional, organism-based
# Candida albicans [27] = assay: Antifungal activity against fluconazole/ITC-resistant Candida albicans ATCC MYA-1237 measured after 48 hrs by CLSI M27-A3 protocol based method; assay type: functional; details: ATCC MYA-1237, 48 h
# Aspergillus terreus = assay: Antifungal activity against Aspergillus terreus ATCC MYA-3633 measured after 48 hrs by CLSI M38-A2 protocol based method; assay type: functional; details: ATCC MYA-3633, 48 h
# [28] = Selectivity index, ratio of CC50 for human A549 cells to MIC for Candida parapsilosis ATCC 22019; assay type: toxicity; details: read-out: Selectivity Index
# BEAS-2B = assay: Cytotoxicity against human BEAS2B cells after 24 hrs by resazurin based assay; assay type: cell-based
# [29] = Selectivity index, ratio of compound concentration showing <20 to <30% hemolysis in mouse RBC to MIC for fluconazole/ITC-resistant Candida albicans ATCC MYA-1003; assay type: toxicity; details: mouse red blood cells (RBC), read-out: Selectivity Index
# [30] = Hemolytic activity in mouse RBC at […] ug/ml after 1 hr relative to control; assay type: ADME, cell-based, Erythrocyte; details: red blood cells (erythrocytes), read-out: Activity
# Aspergillus flavus = assay: Antifungal activity against Aspergillus flavus ATCC MYA-3631 measured after 48 hrs by CLSI M38-A2 protocol based method; assay type: functional; details: ATCC MYA-3631, 48 h
# [31] = Hemolytic activity in mouse RBC at […] after 1 hr relative to control; assay type: ADME, cell-based, Erythrocyte; details: red blood cells (erythrocytes), read-out: Activity; note: tested at 0.48 µg/mL
# Aspergillus nidulans = assay: Antifungal activity against Aspergillus nidulans ATCC 38163 measured after 48 hrs by CLSI M38-A2 protocol based method; assay type: functional; details: ATCC 38163, 48 h
# [32] = Hemolytic activity in mouse RBC at 62.5 ug/ml after 1 hr relative to control; assay type: ADME, cell-based, Erythrocyte; details: red blood cells (erythrocytes), read-out: Activity
# [33] = Selectivity index, ratio of CC50 for human A549 cells to MIC for Aspergillus nidulans ATCC 38163; assay type: toxicity; details: read-out: Selectivity Index
# [34] = Selectivity index, ratio of CC50 for human A549 cells to MIC for Aspergillus flavus ATCC MYA-3631; assay type: toxicity; details: read-out: Selectivity Index
# [35] = Selectivity index, ratio of compound concentration showing <20 to <30% hemolysis in mouse RBC to MIC for Candida krusei ATCC 6258; assay type: toxicity; details: mouse red blood cells (RBC), read-out: Selectivity Index
# [36] = Selectivity index, ratio of compound concentration showing <20 to <30% hemolysis in mouse RBC to MIC for Aspergillus flavus ATCC MYA-3631; assay type: toxicity; details: mouse red blood cells (RBC), read-out: Selectivity Index
# [37] = Selectivity index, ratio of compound concentration showing <20 to <30% hemolysis in mouse RBC to MIC for fluconazole/ITC-resistant Candida albicans ATCC 10231; assay type: toxicity; details: red blood cells (erythrocytes), read-out: Selectivity Index
# [38] = Selectivity index, ratio of CC50 for human A549 cells to MIC for fluconazole/ITC-resistant Candida albicans ATCC 64124; assay type: toxicity; details: read-out: Selectivity Index
# [39] = Hemolytic activity in mouse RBC at 1.95 ug/ml after 1 hr relative to control; assay type: ADME, cell-based, Erythrocyte; details: red blood cells (erythrocytes), read-out: Activity
# Chain of Voltage-gated inwardly rectifying potassium channel KCNH2 (Q12809 whole entry): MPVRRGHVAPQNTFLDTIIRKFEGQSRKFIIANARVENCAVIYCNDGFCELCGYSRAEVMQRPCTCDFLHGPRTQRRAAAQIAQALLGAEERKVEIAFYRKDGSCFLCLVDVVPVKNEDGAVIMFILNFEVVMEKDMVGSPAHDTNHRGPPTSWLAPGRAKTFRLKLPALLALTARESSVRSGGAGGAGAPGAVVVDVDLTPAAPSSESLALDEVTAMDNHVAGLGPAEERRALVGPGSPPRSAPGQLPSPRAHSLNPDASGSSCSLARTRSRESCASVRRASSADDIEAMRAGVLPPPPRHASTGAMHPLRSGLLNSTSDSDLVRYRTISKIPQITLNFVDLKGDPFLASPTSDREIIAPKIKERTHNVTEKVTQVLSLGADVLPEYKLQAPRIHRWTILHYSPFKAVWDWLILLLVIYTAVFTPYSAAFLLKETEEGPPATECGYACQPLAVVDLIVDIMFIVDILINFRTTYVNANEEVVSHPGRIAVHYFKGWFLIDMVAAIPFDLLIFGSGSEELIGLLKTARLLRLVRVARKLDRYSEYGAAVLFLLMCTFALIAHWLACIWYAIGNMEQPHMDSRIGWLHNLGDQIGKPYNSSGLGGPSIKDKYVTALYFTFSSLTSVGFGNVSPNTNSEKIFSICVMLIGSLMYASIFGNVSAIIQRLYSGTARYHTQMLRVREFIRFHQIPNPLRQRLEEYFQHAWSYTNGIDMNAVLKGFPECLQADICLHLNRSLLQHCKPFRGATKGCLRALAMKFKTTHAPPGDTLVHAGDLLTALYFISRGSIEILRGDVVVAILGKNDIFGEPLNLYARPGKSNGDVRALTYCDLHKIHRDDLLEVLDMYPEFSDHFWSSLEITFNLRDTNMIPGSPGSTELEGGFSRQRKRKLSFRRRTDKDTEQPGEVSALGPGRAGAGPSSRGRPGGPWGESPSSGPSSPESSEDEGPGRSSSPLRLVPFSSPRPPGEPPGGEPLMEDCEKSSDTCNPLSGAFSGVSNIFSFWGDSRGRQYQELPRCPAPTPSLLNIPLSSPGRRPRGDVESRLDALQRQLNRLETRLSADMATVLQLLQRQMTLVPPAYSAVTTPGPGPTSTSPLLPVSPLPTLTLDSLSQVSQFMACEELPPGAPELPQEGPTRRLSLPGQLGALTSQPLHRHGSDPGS
structure (smiles),measurement,setting,value
COc1ccc(N/N=C/c2ccc(-c3cccc(/C=N/Nc4ccc(OC)cc4)c3)cc2)cc1,selectivity ratio,[1],2.3
same,selectivity ratio,[2],4.7
same,CC50,A549,18.2 µg/mL
same,selectivity ratio,[3],1 to 32
same,selectivity ratio,[4],1 to 32
same,selectivity ratio,[5],1 to 32
same,selectivity ratio,[6],1 to 32
same,Activity,Listeria monocytogenes,inactive
same,selectivity ratio,[7],1 to 32
same,"hemolysis at 1 h, 3.9 ug/ml",[8],3%
same,selectivity ratio,[9],2.3
same,MIC,Candida albicans [10],1.95 µg/mL
same,selectivity ratio,[11],2.3
same,"hemolysis at 1 h, 7.8 ug/ml",[12],2.6%
same,MIC,Pichia kudriavzevii,3.9 µg/mL
same,"hemolysis at 1 h, 31.3 ug/ml",[13],9.6%
same,MIC,Candida albicans [14],3.9 µg/mL
same,Activity,Enterococcus,inactive
same,selectivity ratio,[15],0.6
same,IC50,[16],> 30 µM
same,MIC,Candida albicans [17],15.6 µg/mL
same,selectivity ratio,[18],9.3
same,selectivity ratio,[19],1 to 32
same,selectivity ratio,[20],1 to 32
same,MIC,Candida parapsilosis,> 31.3 µg/mL
same,selectivity ratio,[21],4.7
same,selectivity ratio,[22],1 to 32
same,selectivity ratio,[23],4.7
same,selectivity ratio,[24],4.7
same,MIC,Candida albicans [25],3.9 µg/mL
same,selectivity ratio,[26],1 to 32
same,Activity,Staphylococcus aureus,inactive
same,MIC,Candida albicans [27],3.9 µg/mL
same,MIC,Aspergillus terreus,> 31.3 µg/mL
same,selectivity ratio,[28],0.6
same,CC50,BEAS-2B,14.1 µg/mL
same,selectivity ratio,[29],1 to 32
same,"hemolysis at 1 h, 15.6 ug/ml",[30]; at 15.6 µg/mL,7.8%
same,"hemolysis at 1 h, 0.975 ug/ml",[30],2.6%
same,MIC,Aspergillus flavus,> 31.3 µg/mL
same,"hemolysis at 1 h, […]",[31],0%
same,MIC,Aspergillus nidulans,31.3 µg/mL
same,"hemolysis at 1 h, 62.5 ug/ml",[32],18.8%
same,selectivity ratio,[33],0.6
same,selectivity ratio,[34],0.6
same,selectivity ratio,[35],1 to 32
same,selectivity ratio,[36],1 to 32
same,selectivity ratio,[37],1 to 32
same,selectivity ratio,[38],1.2
same,"hemolysis at 1 h, 1.95 ug/ml",[39],4.5%
